Results: ChEMBL document CHEMBL4406836, “The design of a cell-selective fowlicidin-1-derived peptide with both antimicrobial and anti-inflammatory activities” (Eur J Med Chem, 2019)
Converted amounts (≈) assume the structure as drawn. The source made the active and inactive calls. No cut-off for these calls is given here.

Experiments:
[1] = tested on: Pseudomonas aeruginosa; test: Antibacterial activity against multidrug-resistant Pseudomonas aeruginosa CCARM 2095 assessed as reduction in bacterial growth incubated for 72 hrs by spectrophotometry; assay type: functional; conditions: CCARM 2095, 72 h
[2] = tested on: Staphylococcus aureus; test: Antibacterial activity against methicillin-resistant Staphylococcus aureus CCARM 3089 assessed as reduction in bacterial growth incubated for 72 hrs by spectrophotometry; assay type: functional; conditions: CCARM 3089, 72 h
[3] = tested on: Staphylococcus aureus; test: Induction of cytoplasmic membrane depolarization in Staphylococcus aureus at 2 times of MIC within 4 mins by SYTOX green-based assay; assay type: functional, organism-based
[4] = tested on: Enterococcus faecium; test: Antibacterial activity against vancomycin-resistant Enterococcus faecium ATCC 51559 assessed as reduction in bacterial growth incubated for 18 hrs by spectrophotometry based microtiter broth dilution method; assay type: functional; conditions: ATCC 51559, 18 h
[5] = tested on: Escherichia coli; test: Induction of membrane integrity disruption in Escherichia coli at 2 times of MIC by propidium iodide staining based flow cytometry relative to control (reference value: 2.97 %); assay type: functional
[6] = tested on: Staphylococcus aureus; test: Induction of cytoplasmic membrane depolarization in Staphylococcus aureus at 2 times of MIC for a period of 600 sec by DiSC3-5-fluorescence based assay; assay type: functional, organism-based

Row | SMILES | MIC [1] [µM] | MIC [2] [µM] | Activity [3] | MIC [4] [µM] | Activity [5] [%] | Activity [6]
1 | O=C(N[C@H](CO)[C@H](O)c1ccc([N+](=O)[O-])cc1)C(Cl)Cl [CHLORAMPHENICOL] | 1020 (≈ 331 µg/mL) | 128 (≈ 41.4 µg/mL) |  |  |  | 
2 | O=C(O)c1cn(C2CC2)c2cc(N3CCNCC3)c(F)cc2c1=O [CIPROFLOXACIN] | 512 (≈ 170 µg/mL) | 1020 (≈ 339 µg/mL) |  |  |  | 
3 | CC[C@H](C)[C@H](NC(=O)CN)C(=O)NCC(=O)N[C@@H](C)C(=O)N[C@H](C(=O)N[C@@H](CC(C)C)C(=O)N[C@@H](CCCCN)C(=O)N[C@H](C(=O)N[C@@H](CC(C)C)C(=O)N[C@H](C(=O)N[C@H](C(=O)NCC(=O)N[C@@H](CC(C)C)C(=O)N1CCC[C@H]1C(=O)N[C@@H](C)C(=O)N[C@@H](CC(C)C)C(=O)N[C@H](C(=O)N[C@@H](CO)C(=O)N[C@@H](Cc1c[nH]c2ccccc12)C(=O)N[C@H](C(=O)N[C@@H](CCCCN)C(=O)N[C@@H](CCCNC(=N)N)C(=O)N[C@@H](CCCCN)C(=O)N[C@@H](CCCNC(=N)N)C(=O)N[C@@H](CCC(N)=O)C(=O)N[C@@H](CCC(N)=O)C(N)=O)[C@@H](C)CC)[C@@H](C)CC)[C@@H](C)O)[C@@H](C)O)C(C)C)C(C)C [MELITTIN] |  |  | Active | 8 (≈ 22.8 µg/mL) | 75.38 | Active
4 | Cc1onc(-c2ccccc2)c1C(=O)N[C@@H]1C(=O)N2[C@@H]1SC(C)(C)[C@@H]2C(=O)O [OXACILLIN] | 512 (≈ 206 µg/mL) | 512 (≈ 206 µg/mL) |  |  |  | 
